# Measurements reported in patent US20060069132A1, “Azolecarboxamide herbicides” (priority 2004, published 2006).
# Experiments:
# [1] = test system: velvetleaf; assay: Test B pre-/postemergence herbicide test; type: in vivo, Abutilon theophrasti
# Outline: (§1)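 Formulation: non-phytotoxic solvent mix with surfactant. Timing: preemergence on seed and postemergence on 2–18 cm plants, applied concurrently. Readout after 13–15 d greenhouse: visual 0–100 control rating against controls.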
# [2] = test system: barnyardgrass; assay: Test A pre-/postemergence herbicide test; type: in vivo, Echinochloa crus-galli; details: for Plant response rating, Barnyardgrass: Postemergence; for Barnyardgrass plant response rating: Preemergence
# Outline: (§2)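 Seeds sown in sandy loam received a preemergence directed soil spray of compound in non-phytotoxic solvent with surfactant; postemergence plants (2–10 cm, one- to two-leaf stage) were sprayed to runoff at the same time. After ~10 days in greenhouse, injury was rated visually versus untreated controls (0 = no effect, 100 = complete control).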
# [3] = test system: morningglory; assay: Test B pre-/postemergence herbicide test; type: in vivo, Ipomoea coccinea
# Outline: (§3)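 Seeds were planted and treated preemergence with compounds formulated in a non-phytotoxic solvent mixture containing surfactant, while plants at the 1- to 4-leaf stage (2 to 18 cm) received postemergence sprays. Flooded paddy plants were grown to the 2-leaf stage. After 13 to 15 days in a greenhouse, injury was visually rated 0–100 against untreated controls.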
# [4] = test system: wild oat; assay: Test B postemergence herbicide test; type: in vivo, Avena fatua; details: scale 0 (no effect) to 100 (complete control)
# Outline: (§4)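 Each value is a visual 0–100 response rating taken against controls 13 to 15 days after treatment in the greenhouse. Plants received formulated chemical postemergence at the 1- to 4-leaf stage or, in flooded paddy, at the 2-leaf stage.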
# [5] = test system: redroot pigweed; assay: Test A pre-/postemergence herbicide test; type: in vivo, Amaranthus retroflexus; details: for Plant response rating, Pigweed: Postemergence; for Pigweed plant response rating: Preemergence
# Outline: as §2
# [6] = test system: large crabgrass; assay: Test A pre-/postemergence herbicide test; type: in vivo, Digitaria sanguinalis; details: for Plant response rating, Crabgrass, Large: Postemergence; for Crabgrass, Large plant response rating: Preemergence
# Outline: as §2
# [7] = test system: barnyardgrass; assay: Test B pre-/postemergence herbicide test; type: in vivo, Echinochloa crus-galli
# Outline: as §3
# [8] = test system: large crabgrass; assay: Test B pre-/postemergence herbicide test; type: in vivo, Digitaria sanguinalis
# Outline: as §1
# [9] = test system: ducksalad; assay: Test B flooded paddy test; type: in vivo, Heteranthera limosa; details: 1000 g ai/ha, visual rating, scale 0 to 100 (0 no effect, 100 complete control), 13 to 15 days
# Outline: (§5)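 Postemergence plants were sprayed with formulated test chemicals at 2 to 18 cm height (1- to 4-leaf stage); paddy species were grown to the 2-leaf stage. After 13 to 15 days in a greenhouse, injury was rated visually against untreated controls on a 0–100 scale (0 = no effect, 100 = complete control).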
# [10] = test system: Surinam grass; assay: Test B pre-/postemergence herbicide test; type: in vivo, Urochloa decumbens
# Outline: as §1
# [11] = test system: small flower umbrella sedge; assay: Test B flooded paddy test; type: in vivo, Cyperus difformis; details: 1000 g ai/ha, visual rating, scale 0 to 100 (0 no effect, 100 complete control), 13 to 15 days
# Outline: as §5
# [12] = test system: lambsquarters; assay: Test B pre-/postemergence herbicide test; type: in vivo, Chenopodium album
# Outline: as §1
# [13] = test system: giant foxtail; assay: Test A pre-/postemergence herbicide test; type: in vivo, Setaria faberi; details: for Plant response rating, Foxtail, Giant: Postemergence; for Foxtail, Giant plant response rating: Preemergence
# Outline: as §2
# [14] = test system: corn; assay: Test B pre-/postemergence herbicide test; type: in vivo, Zea mays
# Outline: as §1
# [15] = test system: morningglory; assay: Test A pre-/postemergence herbicide test; type: in vivo, Ipomoea spp.; details: for Plant response rating, Morningglory: Postemergence; for Morningglory plant response rating: Preemergence
# Outline: as §2
# [16] = test system: cocklebur; assay: Test B pre-/postemergence herbicide test; type: in vivo, Xanthium strumarium
# Outline: as §3
# [17] = test system: pigweed; assay: Test B pre-/postemergence herbicide test; type: in vivo, Amaranthus retroflexus
# Outline: as §1
# [18] = test system: blackgrass; assay: Test B postemergence herbicide test; type: in vivo, Alopecurus myosuroides; details: scale 0 (no effect) to 100 (complete control)
# Outline: as §5
# [19] = test system: velvetleaf; assay: Test A pre-/postemergence herbicide test; type: in vivo, Abutilon theophrasti; details: for Velvetleaf plant response rating: Preemergence
# Outline: as §2
# [20] = test system: rice; assay: Test B pre-/postemergence herbicide test; type: in vivo, Oryza sativa
# Outline: as §1
# [21] = test system: giant foxtail; assay: Test B pre-/postemergence herbicide test; type: in vivo, Setaria faberi
# Outline: as §1
# [22] = test system: barnyardgrass; assay: Test B flooded paddy test; type: in vivo, Echinochloa crus-galli; details: 1000 g ai/ha, visual rating, scale 0 to 100 (0 no effect, 100 complete control), 13 to 15 days
# Outline: as §5
# [23] = test system: wheat; assay: Test B postemergence herbicide test; type: in vivo, Triticum aestivum; parameters: key to Wheat plant response rating: 0 = no effect, 100 = complete control; details: scale 0 (no effect) to 100 (complete control)
# Outline: as §4
# [24] = test system: rice; assay: Test B flooded paddy test; type: in vivo, Oryza sativa; details: 1000 g ai/ha, visual rating, scale 0 to 100 (0 no effect, 100 complete control), 13 to 15 days
# Outline: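 Scale 0–100: zero equals no visible effect, 100 complete control, judged by eye relative to controls. Timing: 13 to 15 days in greenhouse post-treatment. Growth stage at spraying: two leaves (paddy) or one to four leaves, 2–18 cm (postemergence).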
# [25] = Postemergence, 500 g ai/ha, visual rating after 13 to 15 days, scale 0 (no effect) to 100 (complete control)
# [26] = Preemergence, 500 g ai/ha, scale 0 to 100
# [27] = postemergence, 125 g ai/ha, visual rating, scale 0 (no effect) to 100 (complete control)
# [28] = preemergence, 125 g ai/ha, 0 to 100 scale, 0 is no effect, 100 is complete control
# [29] = 500 g ai/ha, 0 to 100 scale, 0 no effect, 100 complete control
# [30] = 2000 g ai/ha, 0 to 100 scale, 0 no effect, 100 complete control
# [31] = 500 g ai/ha, visual rating, 0 to 100 scale (0 no effect, 100 complete control)
# [32] = Postemergence, 500 g ai/ha, visual rating after 13 to 15 days
# [33] = postemergence, 125 g ai/ha, visual rating
structure (smiles),measurement,setting,value
CCn1nc(C(C)(C)C)cc1C(=O)Nc1cccc2c1CNC2=O [Compound 52],"Plant response rating, Velvetleaf",[1]; [25],20
same,Velvetleaf plant response rating,[1]; [26],20
same,Velvetleaf plant response rating,[1]; [27],10
same,"Plant response rating, Velvetleaf",[1]; [28],0
same,"Plant response rating, Barnyardgrass",[2]; [29],25
same,"Plant response rating, Barnyardgrass",[2]; [30],55
same,Barnyardgrass plant response rating,[2]; [31],25
same,Barnyardgrass plant response rating,[2]; [30],90
same,"Plant response rating, Morningglory",[3]; [25],0
same,Morningglory plant response rating,[3]; [26],0
same,Morningglory plant response rating,[3]; [27],0
same,"Plant response rating, Morningglory",[3]; [28],0
same,"Plant response rating, Oat, Wild",[4]; [32],10
same,"Oat, Wild plant response rating",[4]; [33],0
same,"Plant response rating, Pigweed",[5]; [29],30
same,"Plant response rating, Pigweed",[5]; [30],35
same,Pigweed plant response rating,[5]; [31],90
same,Pigweed plant response rating,[5]; [30],90
same,"Plant response rating, Crabgrass, Large",[6]; [29],0
same,"Plant response rating, Crabgrass, Large",[6]; [30],20
same,"Crabgrass, Large plant response rating",[6]; [31],70
same,"Crabgrass, Large plant response rating",[6]; [30],90
same,"Plant response rating, Barnyardgrass",[7]; [25],0
same,Barnyardgrass plant response rating,[7]; [26],60
same,Barnyardgrass plant response rating,[7]; [27],0
same,"Plant response rating, Barnyardgrass",[7]; [28],10
same,"Plant response rating, Crabgrass, Large",[8]; [25],10
same,"Crabgrass, Large plant response rating",[8]; [26],90
same,"Crabgrass, Large plant response rating",[8]; [27],0
same,"Plant response rating, Crabgrass, Large",[8]; [28],20
same,Ducksalad plant response rating,[9],20
same,"Plant response rating, Surinam Grass",[10]; [25],0
same,Surinam Grass plant response rating,[10]; [26],30
same,Surinam Grass plant response rating,[10]; [27],0
same,"Plant response rating, Surinam Grass",[10]; [28],0
same,"Sedge, Umbrella plant response rating",[11],40
same,"Plant response rating, Lambsquarters",[12]; [25],80
same,Lambsquarters plant response rating,[12]; [26],90
same,Lambsquarters plant response rating,[12]; [27],0
same,"Plant response rating, Lambsquarters",[12]; [28],0
same,"Plant response rating, Foxtail, Giant",[13]; [29],25
same,"Plant response rating, Foxtail, Giant",[13]; [30],25
same,"Foxtail, Giant plant response rating",[13]; [31],20
same,"Foxtail, Giant plant response rating",[13]; [30],60
same,"Plant response rating, Corn",[14]; [25],40
same,Corn plant response rating,[14]; [26],0
same,Corn plant response rating,[14]; [27],10
same,"Plant response rating, Corn",[14]; [28],0
same,"Plant response rating, Morningglory",[15]; [29],0
same,"Plant response rating, Morningglory",[15]; [30],0
same,Morningglory plant response rating,[15]; [31],0
same,Morningglory plant response rating,[15]; [30],10
same,"Plant response rating, Cocklebur",[16]; [25],40
same,Cocklebur plant response rating,[16]; [26],10
same,Cocklebur plant response rating,[16]; [27],20
same,"Plant response rating, Cocklebur",[16]; [28],0
same,"Plant response rating, Pigweed",[17]; [25],10
same,Pigweed plant response rating,[17]; [26],90
same,Pigweed plant response rating,[17]; [27],0
same,"Plant response rating, Pigweed",[17]; [28],0
same,"Plant response rating, Blackgrass",[18]; [32],0
same,Blackgrass plant response rating,[18]; [33],0
same,"Plant response rating, Velvetleaf","[19]; Postemergence, 2000 g ai/ha, 0 to 100 scale, 0 no effect, 100 complete control",20
same,Velvetleaf plant response rating,[19]; [31],15
same,Velvetleaf plant response rating,[19]; [30],50
same,Rice plant response rating,[20]; [26],80
same,"Plant response rating, Rice",[20]; [28],0
same,"Plant response rating, Foxtail, Giant",[21]; [25],10
same,"Foxtail, Giant plant response rating",[21]; [26],60
same,"Foxtail, Giant plant response rating",[21]; [27],10
same,"Plant response rating, Foxtail, Giant",[21]; [28],10
same,Barnyardgrass plant response rating,[22],20
same,"Plant response rating, Wheat",[23]; [32],0
same,Wheat plant response rating,[23]; [33],0
same,Rice plant response rating,[24],0
